Test [1] concerns Streptococcus pneumoniae NCCP 14585. It counts as cell-based. The following applies: NCCP 14585, 1 h. In outline: (§1)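 MBC = lowest peptide concentration yielding no colonies on TS agar after overnight growth at 37 °C. Before plating, cells (5 × 10^5 CFU/mL, mid-log) were incubated 1 h with peptide, 2-fold series from 64 μg/mL, in 10 mM Na phosphate pH 7.4 plus 1% TS broth.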
For test [2], the system named is Staphylococcus aureus ATCC 29213. The class given is cell-based. In outline:
as §1

Test [3] relates to Pseudomonas aeruginosa ATCC 27853. The class given is cell-based. In a few lines: as §1
The test system of test [4] is Carbapenem-resistant P. aeruginosa (CRPA), clinical isolate. The class given is cell-based, Pseudomonas aeruginosa. The conditions noted are these: 1 h. In outline:
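Mid-log clinical isolates diluted to 5 × 10^5 CFU/mL in 10 mM sodium phosphate (pH 7.4) with 1% TS broth, exposed 1 h to peptides two-fold diluted from 64 μg/mL, then plated on TS agar overnight at 37 °C. MBC is the lowest concentration with no colonies.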

The test system of test [5] is Carbapenem-resistant K. pneumoniae, clinical isolate. The class given is cell-based, Klebsiella pneumoniae. The conditions noted are these: 1 h. From the text:
Acinetobacter baumannii (ATCC 19606), B. subtilis (ATCC 6633), E. aerogenes (ATCC 13048), E. coli (ATCC 25922), E. faecalis (ATCC 19433), E. faecium (ATCC 19434), K. pneumoniae (ATCC 13883), P. aeruginosa (ATCC 27853), S. aureus (ATCC 29213), S. sindenensis (ATCC 23963), and MRSA (ATCC 33591) were purchased from the American Type Culture Collection (ATCC; Gaithersburg, MD, USA). Streptococcus pneumoniae (NCCP 14585), vancomycin-resistant E. faecium (NCCP 11522), and vancomycin-resistant S. aureus (NCCP 15872) were purchased from the National Culture Collection for Pathogens (NCCP; Cheongju, Korea). The isolation and use of carbapenem-resistant bacterial strains from a patient were approved (2015AN0129) by the Institutional Review Board (IRB) of Korea University Hospital. […]
The minimum bactericidal concentration (MBC) was determined as previously described with minor modifications. […] The value of MBC was determined at the lowest concentrations at which no colonies were identified.
We used the CFU counting method to measure antibacterial activity, with all bacteria cultured to the mid-log phase in an appropriate broth medium. Bacterial CFUs were counted after overnight culture at 37 °C on TS or LB agar plates. The MBC value and antibacterial activity in blood components were determined as previously described. […]

≈ marks a conversion by molar mass, not a printed value. Residues, ends and D or L forms follow the SMILES beside them.

In the case of `CC[C@H](C)[C@H](NC(=O)CNC(=O)CNC(=O)[C@@H](NC(=O)[C@H](C)NC(=O)[C@H](CCSC)NC(=O)[C@H](Cc1ccccc1)NC(=O)[C@@H](NC(=O)CNC(=O)[C@H](Cc1ccccc1)NC(=O)[C@H](CCCCN)NC(=O)CNC(=O)CNC(=O)[C@H](CCCCN)NC(=O)[C@H](CCCCN)NC(=O)[C@H](CCSC)NC(=O)[C@H](CCSC)NC(=O)[C@H](CCCCN)NC(=O)[C@@H](N)CCCCN)[C@@H](C)O)[C@@H](C)CC)C(=O)N[C@@H](CCCNC(=N)N)C(=O)O` [AMPR-22] (H-KKMMKKGGKFGTFMAIGGIR-OH), the “MBC Value, Streptococcus pneumoniae” value in test [1] turned out to be 4 µg/mL (≈ 1.83 µM). Further, the “MBC Value, S. aureus” value in test [2] (ATCC 29213, 1 h, pH 7.4) worked out at 2 µg/mL (≈ 0.915 µM). For the same compound, the “MBC Value, Staphylococcus aureus” value in test [2] (Table 2, ATCC 29213, modified MBC) is 2 µg/mL (≈ 0.915 µM). In test [3] (ATCC 27853, 1 h), the “MBC Value, P. aeruginosa” value was 2 µg/mL (≈ 0.915 µM). Besides, the “MBC Value, Pseudomonas aeruginosa” value in test [3] (Table 2, ATCC 27853, modified MBC) worked out at 2 µg/mL (≈ 0.915 µM). In addition, in test [4], the “MBC Value, CRPA” value is 4 µg/mL (≈ 1.83 µM) and the “MBC Value, Carbapenem-resistant P. aeruginosa” value is listed as 4 µg/mL (≈ 1.83 µM). Also, in test [5], the “MBC Value, Carbapenem-resistant K. pneumoniae” value amounted to 4 µg/mL (≈ 1.83 µM).

For the origin of these results see paper PMC8348110, “A Novel Peptide Derived from the Transmembrane Domain of Romo1 Is a Promising Candidate for Sepsis Treatment and Multidrug-Resistant Bacteria” (International Journal of Molecular Sciences, 2021).
